These results are taken from PMC4123750 (Cell, 2014).

For one data set, the target named is T1, NtDRM MTase (Nicotiana tabacum, UniProt Q76KU6).
T1 sequence (Q76KU6 255-608): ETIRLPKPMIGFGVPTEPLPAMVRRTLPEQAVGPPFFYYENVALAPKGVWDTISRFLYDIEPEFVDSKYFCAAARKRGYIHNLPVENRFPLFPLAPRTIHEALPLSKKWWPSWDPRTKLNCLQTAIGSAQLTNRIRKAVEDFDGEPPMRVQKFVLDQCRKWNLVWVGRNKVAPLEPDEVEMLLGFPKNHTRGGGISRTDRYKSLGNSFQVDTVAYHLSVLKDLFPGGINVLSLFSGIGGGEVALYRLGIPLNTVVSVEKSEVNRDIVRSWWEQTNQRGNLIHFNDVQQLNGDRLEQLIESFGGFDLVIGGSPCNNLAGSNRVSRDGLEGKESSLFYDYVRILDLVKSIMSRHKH
Nature of the data set: X-ray crystal structure, […] A. It is filed as binding. Particulars: cofactor site; co-crystallised at protein:sinefungin molar ratio 1:3.

The data set “crystal structure” concerns the molecule itself. Nature of the data set: crystal structure.

On to `Nc1ncnc2c1ncn2[C@@H]1O[C@H](C[C@@H](N)CC[C@H](N)C(=O)O)[C@@H](O)[C@H]1O` [sinefungin], for which the “X-ray crystal structure, 2.8 A” value at NtDRM MTase was “NtDRM MTase dimer with each molecule bound to a cofactor analog sinefungin in the active site”.

B1: Nicotiana tabacum DRM methyltransferase domain (NtDRM MTase, residues 255-608) (domain or fragment, UniProt Q76KU6 255-608, looked up)
chain: T1 sequence (Q76KU6 255-608)
By stoichiometry N is commonly meant the number of molecules, sites or subunits per partner or assembly. For the molecule B1, the “stoichiometry N” value in the data set “crystal structure” is 2.
